Patent publication US8163693B2, “Urea-containing peptides as inhibitors of viral replication” (Achillion Pharmaceuticals, Inc., priority 2007, dated 2012)
pEC50: −log10 of the molar value. Like-named read-outs stand apart in the source and are kept apart here.

Test system: Hepatitis C replicon in Huh-7 cells
Experiment: HCV replicon assay (inhibition of HCV replicon replication, NPT ELISA readout)
Assay type: cell-based
Conditions: Hepatitis C virus, 72 h, Huh-7 HCV replicon-containing cells, three days incubation
Description: Compounds claimed herein are tested for the ability to inhibit viral replication of the Hepatitis C replicon in cultured cells in which the HCV replicon construct has been incorporated. The HCV replicon system was described by Bartenschlager, et. al (Science, 285, pp. 110-113 (1999)). The replicon system is predictive of in vivo anti-HCV activity; compounds that are active in humans uniformly evidence activity in the replicon assay.
In this assay HCV replicon containing cells are treated with different concentrations of the test compound to ascertain the ability of the test compound to suppress replication of the HCV replicon. As a positive control, HCV replicon-containing cells are treated with different concentrations of interferon alpha, a known inhibitor of HCV replication. The replicon assay system includes Neomycin Phosphotransferase (NPT) as a component of the replicon itself in order to detect the transcription of replicon gene products in the host cell. Cells in which the HCV replicon is actively replicating have high levels of NPT; the level of NPT is proportional to HCV replication. […] The NPT level of each sample is measured using a captured ELISA.
A protocol for testing compounds for the ability to inhibit viral replication of the Hepatitis C replicon cultured cells in which the replicon construct has been incorporated, follows.
The HCV replicon contains, 5′-3′, the HCV-IRES, the neomycin phosphotransferase (neo) gene, the IRES of encephalomyocarditis virus, which directs translation of HCV sequences NS3 to NS5B, and the 3′-NTR. The sequence of the HCV replicon has been deposited in GenBank (Accession no. AJ242652).
The replicon is transfected into Huh-7 cells using standard methods such as electroporation.
The equipment and materials include, but are not limited to, Huh-7 HCV replicon-containing cells, maintenance media (DMEM (Dulbecco's modified Eagle media) supplemented with 10% FBS, L-glutamine, non-essential amino acids, penicillin (100 units/ml), streptomycin (100 micrograms/ml), and 500 micrograms/ml of Geneticin (G418), screening media (DMEM supplemented with 10% FBS, L-glutamine, non-essential amino acids, penicillin (100 units/ml) and streptomycin (100 micrograms/ml)), 96 well tissue culture plates (flat bottom), 96 well plates (U bottom for drug dilution), Interferon alpha for positive control, fixation reagent (such as methanol: acetone), primary antibody (rabbit anti-NPTII), secondary antibody: Eu-N1 1, and enhancement solution.
The cells are then seeded onto 96-well plates at a density of 6000-7500 cells/100 microliters/ well (6-7.5×10^5 cells/10 ml/plate). The plates are then incubated at 37° C. in a 5% CO2 incubator.
HCV replicon-containing cells are rinsed with once PBS once; 2 mls of trypsin are then added. Cells are incubated at 37° C. in a 5% CO2 incubator for 3-5 minutes. 10 mls of complete medium is added to stop the reaction. Cells are blown gently, put into a 15 ml tube, and spun at 1200 rpm for four minutes. The trypsin/medium solution is removed and 5 mls of medium (500 ml DMEM (high glucose)) from BRL catalog #12430-054; 50 mls 10% FBS, 5% Geneticin G418 (50 mg/ml, BRL catalog #10131-035), 5 ml MEM non-essential amino acids (100× BRL #11140-050) and 5 ml pen-strep (BRL #15140-148) is added. The cells and media are mixed carefully
Cells are plated with screening medium (500 ml DMEM (BRL #21063-029), 50 ml FBS (BRL #10082-147) and 5 ml MEM non-essential amino acid (BRL #11140-050) at 6000-7500 fcells/100 μl/well of 96 well plate (6-7.5×10^5 cells/10 ml/plate). Plates are placed into 37° C. 5% CO2 incubator overnight.
The following morning, drugs (test compounds or interferon alpha) are diluted in 96 well U bottom plates with media or DMSO/media, depending on the final concentration chosen for screening. Generally for 6 concentrations of each test compounds ranging from 10 micromolar to 0.03 micromolar are applied. […]

[1] = read-out: Activity (EC50 class in an HCV replicon assay)
[2] = read-out: EC50 in HCV replicon assay

Compound | pEC50 [1] | pEC50 [2]
C=CC1CC1(NC(=O)N1C[C@@H](Oc2cc(-c3ccccc3)nc3cc(OC)ccc23)C[C@H]1C(=O)N[C@H](C(=O)N[C@H](C(=O)NC)C1CCCCC1)C(C)(C)C)C(=O)NS(=O)(=O)C1CC1 (some centres unmarked) [Compound 48] | > 5.00 | –
C=CC1CC1(NC(=O)N1C[C@@H](OC(=O)N2CCCCC2)C[C@H]1C(=O)N[C@H](C(=O)OC(C)(C)C)C(C)(C)C)C(=O)O (some centres unmarked) [Compound 46] | 4.00 to 5.00 | –
C=CC1CC1(NC(=O)N1C[C@@H](OC(=O)N2CCCCC2)C[C@H]1C(=O)N[C@H](C(=O)OC(C)(C)C)C(C)(C)C)C(=O)OCC (some centres unmarked) [Compound 45] | > 5.00 | –
CCCC(NC(=O)N1C[C@@H](Oc2cc(-c3ccccc3)nc3cc(OC)ccc23)C[C@H]1C(=O)N[C@H](C(=O)N[C@H](C(=O)OC)C1CCCCC1)C(C)(C)C)C(=O)C(=O)NC1CC1 (some centres unmarked) [Compound 41] | > 5.00 | –
C=CC1CC1(NC(=O)N1C[C@@H](Oc2cc(-c3ccccc3)nc3cc(OC)ccc23)C[C@H]1C(=O)NC(C(=O)N[C@H](C(=O)NC)C1CCCCC1)C(C)(C)C)C(=O)O (some centres unmarked) [Compound 42] | < 4.00 | –
CNC(=O)[C@@H](NC(=O)[C@@H]1CCCCC/C=C\CC(C(=O)C(=O)NC2CC2)NC(=O)N2C[C@@H](OC(=O)N3CCc4ccccc4C3)C[C@@H]2C(=O)N1)C1CCCCC1 (some centres unmarked) [Compound 39] | – | ≥ 5.00
CCCC(NC(=O)N1C[C@@H](OC(=O)N2CCc3ccccc3C2)C[C@H]1C(=O)N[C@H](C(=O)N[C@H](C(=O)NC)C1CCCCC1)C(C)(C)C)C(=O)C(=O)NC1CC1 (stereo partly drawn) [Compound 16, (3S,5S)-5-((S)-1-((S)-1-Cyclohexyl-2-(Methylamino)-2-Oxoethylamino)-3,3-Dimethyl-1-Oxobutan-2-Ylcarbamoyl)-1-(1-(Cyclopropylamino)-1,2-Dioxohexan-3-Ylcarbamoyl)Pyrrolidin-3-Yl 3,4Dihydroisoquinoline-2(1H)-Carboxylate] | – | > 4.30
CNC(=O)[C@@H](NC(=O)[C@@H]1CCCCC/C=C\C2CC2(C(=O)O)NC(=O)N2C[C@@H](OC(=O)N3CCc4ccccc4C3)C[C@@H]2C(=O)N1)C1CCCCC1 (some centres unmarked) [Compound 40] | – | ≥ 5.00
CCCC(NC(=O)N1C[C@@H](OC(=O)N2CCc3ccccc3C2)C[C@H]1C(=O)N[C@H](C(=O)N[C@H](C(=O)OC)C1CCCCC1)C(C)(C)C)C(=O)C(=O)NC1CC1 (stereo partly drawn) [Compound 11, (3S,5S)-5-((S)-1-((S)-1-Cyclohexyl-2-Methoxy-2-Oxoethylamino)-3,3-Dimethyl-1-Oxobutan-2-Ylcarbamoyl)-1-(1-(Cyclopropylamino)-1,2-Dioxohexan-3-Ylcarbamoyl)Pyrrolidin-3-yl 3,4-Dihydroisoquinoline-2(1H)-Carboxylate] | – | ≥ 5.00
C=CC1CC1(NC(=O)N1C[C@@H](OC(=O)N2CCc3ccccc3C2)C[C@@H]1C(=O)N[C@H](C(=O)N[C@H](C(=O)NC)C(CC)CC)C(C)(C)C)C(=O)O (stereo partly drawn) [Compound 38, 1-((2R,4S)-2-((S)-1-((S)-3-Ethyl-1-(Methylamino)-1-Oxopentan-2-Ylamino)-3,3-Dimethyl-1-Oxobutan-2-Ylcarbamoyl)-4-(1,2,3,4-Tetrahydroisoquinoline-2-Carbonyloxy)Pyrrolidine-1-Carboxamido)-2-Vinylcyclopropanecarboxylic Acid] | – | > 4.30
C=CC1CC1(NC(=O)N1C[C@@H](OC(=O)N2CCCCC2)C[C@H]1C(=O)N[C@H](C(=O)OC(C)(C)C)C(C)(C)C)C(=O)NS(=O)(=O)C1CC1 (some centres unmarked) [Compound 47] | > 5.00 | –
CCCC(NC(=O)N1C[C@@H](OC(=O)N2CCc3ccccc3C2)C[C@H]1C(=O)N[C@H](C(=O)OC(C)(C)C)C(C)(C)C)C(=O)C(=O)NC1CC1 (some centres unmarked) [Compound 43] | 4.00 to 5.00 | –
C=CC1CC1(NC(=O)N1C[C@@H](OC(=O)N2CCc3ccccc3C2)C[C@H]1C(=O)N[C@H](C(=O)N[C@H](C(=O)NC)C1CCCCC1)C(C)(C)C)C(=O)O (stereo partly drawn) [Compound 33, 1-((2S,4S)-2-((S)-1-((S)-1-Cyclohexyl-2-(Methylamino)-2-Oxoethylamino)-3,3-Dimethyl-1-Oxobutan-2-Ylcarbamoyl)-4-(1,2,3,4-Tetrahydroisoquinoline-2-Carbonyloxy)Pyrrolidine-1-Carboxamido)-2-Vinylcyclopropanecarboxylic Acid] | – | > 4.30
CCCC(NC(=O)N1C[C@@H](OC(=O)N2CCCCC2)C[C@H]1C(=O)N[C@H](C(=O)OC(C)(C)C)C(C)(C)C)C(=O)C(=O)NC1CC1 (some centres unmarked) [Compound 44] | > 5.00 | –
